Test results published in patent US20180071303A1, “SYK INHIBITORS” (Gilead Sciences, Inc., priority 2016, published 2018).

How the values were obtained:
[1] = Nijjar J. S. et al., Rheumatology 2013; cited from earlier work
[2] = tested on: previously untreated AML; test: phase 1b/2 study (NCT02343939) of entospletinib monotherapy followed by combination with daunorubicin and cytarabine; conditions: for complete remission (CR) rate: with induction chemotherapy
Description: Patients with residual disease two weeks after chemotherapy received a second induction cycle identical to the first.

| Structure (SMILES) | adverse side effects [1] | patients requiring a second induction ([2]; 200 mg BID, 3 patients) | complete remission (CR) rate ([2]; 200 mg BID, 3 patients) [%] | dose limiting toxicity (DLT) ([2]; 200 mg BID, three patients) | dose limiting toxicity (DLT) ([2]; 400 mg BID, 3 additional patients (DL 1 expanded)) | patients requiring a second induction ([2]; 400 mg BID, 6 patients) | complete remission (CR) rate ([2]; 400 mg BID, 6 patients) [%] | adverse event possibly related to entospletinib ([2]; 400 mg BID, one of three patients, with documented fungal pneumonia, did not meet DLT criteria) | platelet response during the window period ([2]; another patient with 11q23-rearranged AML, monotherapy window) | toxicities after combination with intensive chemotherapy ([2]; combination with daunorubicin and cytarabine) | tolerability of combination with intensive chemotherapy ([2]; doses up to 400 mg BID) | tolerability of single-agent entospletinib ([2]; monotherapy window period (up to 14 days), AML patients) | clinical activity in AML ([2]; overall conclusion) | most common non hematologic adverse events ([2]; overall, inclusive of intensive chemotherapy periods) | response after entospletinib monotherapy window ([2]; person with 11q23-rearranged AML, 14 day monotherapy, prior to chemotherapy) |
| --- | --- | --- | --- | --- | --- | --- | --- | --- | --- | --- | --- | --- | --- | --- | --- |
| COc1cc(Nc2ncc(F)c(Nc3ccc4c(n3)N(COP(=O)(O)O)C(=O)C(C)(C)O4)n2)cc(OC)c1OC [Fostamatinib] | hypertension, neutropenia and transaminitis |  |  |  |  |  |  |  |  |  |  |  |  |  |  |
| c1cn2cc(-c3ccc4cn[nH]c4c3)nc(Nc3ccc(N4CCOCC4)cc3)c2n1 [entospletinib] |  | two | 100 | no DLT was observed | none of whom experienced DLT | none | 100 | grade 3 pneumonitis | significant platelet response | common and typical | well tolerated | well tolerated | significant clinical activity | febrile neutropenia, nausea, and diarrhea | achieved morphologic and cytogenetic CR |
